Data as given in patent publication US6294580A, “Substituted 4-hydroxy-phenylalcanoic acid derivatives with agonist activity to PPAR-gamma” (Glaxo Wellcome Inc., priority 1996, dated 2001).
Structures can show the parent of a compound that is named as a salt. Where two headings read alike, the source gives them in different places.

How the values were obtained:
pre-adipocyte cell lines = details: treatment of pre-adipocyte cell lines; cited from earlier work
human patients = details: patients with impaired glucose tolerance, NIDDM; cited from earlier work
PPARg = assay: PPARgamma Transient Cotransfection Assay; assay type: cell-based
db/db mice = assay: In vivo Evaluation in db/db mice (plasma glucose); set-up: species or system mouse; details: 5 mg/kg b.i.d. oral gavage, fourteen days
Method: In vivo Evaluation: Experiments were performed on db/db mice (n=40-48), approximately 60 day old, divided into either vehicle or treatment groups. From each group 8-12 animals were placed in Nalgene metabolic cages, 2 per cage. The remaining animals are housed in standard rack cages; 3-4 per cage. Test compounds were dissolved in an appropriate vehicle. Animals were administered either the vehicle or the compound (dose=5 mg/kg) delivered at 5 ml/kg, b.i.d., via oral gavage for fourteen days. Daily measurements were made of mice housed in metabolic cages to determine consumption of food and water, urine output and urinary glucose excretion and changes in body weight. Animals housed in rack cages were weighed approximately every four days to monitor changes in body weight. An equal number of animals from each group were sampled on days 0, 4, 7 and 14. Mice were anesthetized with isolflurane, blood samples were obtained by cardiac puncture and analyzed to determine plasma levels of glucose, insulin, total cholesterol, triglycerides and non-esterified free fatty acids (NEFA's).

hPPARgamma = target: T1, hPPARgamma (Homo sapiens, UniProt P37231); assay: hPPARgamma Ligand Binding Assay; details: competition with [3H]-BRL 49,653, room temperature 2 hrs
T1 construct: 10x-histidine tag (N); made in house; host or cells: E. coli
T1 sequence (P37231 195-475 isoform P37231-2): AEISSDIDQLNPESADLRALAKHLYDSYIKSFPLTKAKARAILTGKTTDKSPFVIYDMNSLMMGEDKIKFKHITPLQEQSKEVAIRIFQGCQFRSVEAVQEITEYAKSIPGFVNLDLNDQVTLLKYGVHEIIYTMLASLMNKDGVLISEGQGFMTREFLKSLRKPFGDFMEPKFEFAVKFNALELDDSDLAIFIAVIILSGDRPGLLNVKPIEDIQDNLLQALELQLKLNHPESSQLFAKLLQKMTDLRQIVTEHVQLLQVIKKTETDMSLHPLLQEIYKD
Method: 2. hPPARgamma Ligand Binding Assay: The PPAR-gamma ligand binding domain (amino acids 195-475) was expressed with an N-terminal 10×-histidinetag in E. coli cells. The cells were lysed and receptor was purified by means of the epitope tag. The stock solution of protein was diluted to 200 nM in assay buffer (50 mM Tris, 50 mM KCl, pH 8 20 mM CHAPS, 2 mM EDTA 10 mM DTT (Fresh)) just before use.
Test compounds were prepared as 6 mM stock solutions in DMSO. […] The right-most column of wells was used for controls. […] Plates were incubated at room temperature for 2 hrs, and then cooled on ice for 30 minutes. 50 uL samples from each well of a single test plate were simultaneously loaded onto an equilibrated AGTC 96 well gel filtration block (Advanced Genetics Technology Corp.) using a Zymak Rapidplate automated pipettor. The block was placed on top of a clean microtiter plate and centrifuged @1,100×g for 4 min. 200 uL of scintillation fluid was added to each well, the plates were sealed and allowed to equilibrate for at least 4 hours before counting in a Wallac 1250 Microbeta counter.
Ki's were determined from a nonlinear least squares fit of the data to a simple competitive binding model.

[1] = read-out: PPARg EC50, CAT reporter
[2] = CAT reporter, read-out: PPARg EC50

Row | Compound | EC50 (PPARg; [2]) | Ki (hPPARgamma; PPARg Ki) | further results
1 | CCc1ccc(CCOc2ccc(CC3SC(=O)NC3=O)cc2)nc1 (stereo not shown) [pioglitazone] |  |  | expression of adipocyte-specific genes aP2 and adipsin and glucose transporter proteins GLUT-1 and GLUT-4 (pre-adipocyte cell lines): increased expression of the adipocyte-specific genes aP2 and adipsin as well as the glucose transporter proteins GLUT-1 and GLUT-4
2 | Cc1c(C)c2c(c(C)c1O)CCC(C)(COc1ccc(CC3SC(=O)NC3=O)cc1)O2 (stereo not shown) [troglitazone] |  |  | effects in human patients (insulin sensitivity, lipid and insulin levels) (human patients): these same beneficial effects in human patients
3 | Cc1oc(-c2ccccc2)nc1CCOc1ccc(C[C@H](Nc2ccccc2C(=O)c2ccccc2)C(=O)O)cc1 [Example 29, 2(S)-(2-Benzoyl-phenylamino)-3-{4-[2-(5-methyl-2-phenyl-oxazol-4-yl)ethoxy]-phenyl}-propionic acid] |  |  | EC50 (PPARg; [1]): 0.0002 µM; % lowering of plasma glucose (db/db mice): 70%
4 | CN(CCOc1ccc(C[C@H](Nc2ccccc2C(=O)c2ccccc2)C(=O)O)cc1)c1ccccn1 [Example 12, 2(S)-(2-benzoyl-phenylamino)-3-{4-[2-(methyl-pyridin-2-yl-amino)-ethoxy]-phenyl}-propionic acid] |  |  | EC50 (PPARg; [1]): 0.005 µM; % lowering of plasma glucose (db/db mice): 58%
5 | CN(CCOc1ccc(CC(Nc2ccccc2C(=O)c2ccccc2)C(=O)O)cc1)c1nc2ccccc2o1 (stereo not shown) [Example 16, 3-{4-[2-(benzoxazol-2-yl-methyl-amino)-ethoxy]-phenyl}-2-(2-benzoyl-phenylamino)-propionic acid] | 0.001 µM | 0.02 µM | % lowering of plasma glucose (db/db mice): 63%
6 | CN(CCOc1ccc(CC(Cc2ccccc2)C(=O)O)cc1)c1nc2ccccc2o1 (stereo not shown) [Example 26, 3-{4-[2-(Benzoxazol-2-yl-methyl-amino)-ethoxy]-phenyl}-2-benzyl-propionic acid trifluoroacetate] | 0.67 µM | 1.9 µM | 
7 | COC(=O)c1ccccc1N[C@@H](Cc1ccc(OCCc2ccc(Cl)cc2)cc1)C(=O)O [Example 106, 2(S)-(1-carboxy-2-{4-[2-(4-chloro-phenyl)-ethoxy]-phenyl}-ethylamino)-benzoic acid methyl ester] | 0.3 µM | 0.14 µM | 
8 | CN(CCOc1ccc(CC(Nc2ccccc2C(=O)C2CCCCC2)C(=O)O)cc1)c1nc2ccccc2o1 (stereo not shown) [Example 24, 3-{4-[2-(Benzoxazol-2-yl-methyl-amino)-ethoxy]-phenyl}-2-(2-cyclohexanecarbonyl-phenylamino)-propionic acid] | 0.001 µM | 0.03 µM | 
9 | CC(=CC(=O)c1ccccc1)N[C@@H](Cc1ccc(OCc2ccccc2)cc1)C(=O)O [Example 1, 3-(4-Benzyloxy-phenyl)-2(S)-(1-methyl-3-oxo-3-phenyl-propenylamino)-propionic acid dicyclohexylamine salt] | 0.06 µM | 0.055 µM | PPARg Fold. Act. (PPARg; CAT reporter): 26
10 | CN(CCOc1ccc(CC(Nc2ccc(Cl)cc2C(=O)c2ccccc2)C(=O)O)cc1)c1nc2ccccc2o1 (stereo not shown) [Example 20, 3-{4-[2-(benzoxazol-2-yl-methyl-amino)-ethoxy]-phenyl}-2-(2-benzoyl-4-chloro-phenylamino)-propionic acid] | 0.12 µM | 0.18 µM | 
11 | CN(CCOc1ccc(CC(Nc2c(C(=O)C3CCCCC3)cnn2C)C(=O)O)cc1)c1nc2ccccc2o1 (stereo not shown) [Example 51, 3-{4-[2-(Benzoxazol-2-yl-methyl-amino)-ethoxy]-phenyl}-2-(4-cyclohexanecarbonyl-2-methyl-2H-pyrazol-3-ylamino)-propionic acid] | 0.35 µM | 0.14 µM | 
12 | CN(CCOc1ccc(CC(Cc2ccccc2Br)C(=O)O)cc1)c1nc2ccccc2o1 (stereo not shown) [Example 27, 3-{4-[2-(Benzoxazol-2-yl-methyl-amino)-ethoxy]-phenyl}-2-(2-bromo-benzyl)-propionic acid trifluoroacetate] | 0.4 µM | 0.3 µM | 
13 | Cc1nnsc1-c1nc(CCOc2ccc(C[C@H](Nc3ccccc3C(=O)c3ccccc3)C(=O)O)cc2)c(C)s1 [Example 41, 2(S)-(2-benzoyl-phenylamino)-3-(4-{2-[5-methyl-2-(4-methyl[1,2,3]thiadiazol-5-yl)-thiazol-4-yl]ethoxy}-phenyl)-propionic acid] | 0.005 µM | 0.07 µM | 
14 | 3-{4-[2-(Benzoxazol-2-yl-methylamino)-ethoxy]-phenyl}-3-(4-benzoyl-thienylamino)-propionic acid [Example 108] | 0.02 µM |  | Ki (hPPARgamma; read-out: PPARg Ki): 0.08 µM
15 | Cc1cccc(C)c1C(=O)c1ccccc1NC(Cc1ccc(OCCN(C)c2nc3ccccc3o2)cc1)C(=O)O (stereo not shown) [Example 83] | 0.165 µM | 0.35 µM | 
16 | CN(CCOc1ccc(CC(Nc2ccccc2C(=O)c2cccc(O)c2)C(=O)O)cc1)c1nc2ccccc2o1 (stereo not shown) [Example 92, 3-{4-[2-(benzoxazol-2-yl-methyl-amino)-ethoxy]-phenyl}-2-[2-(3-hydroxy-benzoyl)-phenylamino]-propionic acid] | 0.4 µM | 0.02 µM | 
17 | 2-(2-Benzoyl-phenylamino)-3-(4-{2-[3-(5-methyl-pyridin-2-yl)-propoxy]-ethoxyl}-phenyl)-propionic acid [Example 122] | 0.5 µM |  | Ki (hPPARgamma; read-out: PPARg Ki): 0.625 µM
